In patent US10059688B2, “Protein tyrosine kinase modulators and methods of use” (BETTA PHARMACEUTICALS CO., LTD., priority 2013, dated 2018):

Experiments:
EGFR (h) = EGFR (h) (Homo sapiens (Human), UniProt P00533); experiment: Kinase assay, single dose inhibition (Millipore, 33P-ATP filter binding); format: biochemical; conditions: 0.1 μM test compound, 10 μM ATP; remaining activity relative to DMSO control = 100%
EGFR (T790M) (h) = EGFR (T790M) (h) (Homo sapiens (Human), UniProt P00533, T790M); experiment: as above; format: biochemical; conditions: 0.1 μM test compound, 10 μM ATP; remaining activity relative to DMSO control = 100%
Protocol: (§1) Assay conditions included 10 μM ATP and 100 nM test compounds.
(§2) All reactions are initiated by the addition of the MgATP mix. After incubation for 40 minutes at room temperature, the reaction is stopped by the addition of 3% phosphoric acid solution. 10 μL of the reaction is then spotted onto a P30 filtermat and washed three times for 5 minutes in 75 mM phosphoric acid and once in methanol prior to drying and scintillation counting. This assay is performed by Millipore. The experiment is carried out in duplicate. The value for the control sample (DMSO) was set to 100%, and the values for the compound-treated samples were expressed as activity relative to the control sample.

EGFR (T790M, L858R) (h) = EGFR (T790M, L858R) (h) (Homo sapiens (Human), UniProt P00533, L858R/T790M); experiment: as above; format: biochemical; conditions: 0.1 μM test compound, 10 μM ATP; remaining activity relative to DMSO control = 100%
Protocol: as §1, §2

EGFR (L858R) (h) = EGFR (L858R) (h) (Homo sapiens (Human), UniProt P00533, L858R); experiment: as above; format: biochemical; conditions: 0.1 μM test compound, 10 μM ATP; remaining activity relative to DMSO control = 100%
Protocol: as §1, §2

ALK (h) = ALK (h) (Homo sapiens (Human), UniProt Q9UM73); experiment: as above; format: biochemical; conditions: 0.1 μM test compound, 10 μM ATP; remaining activity relative to DMSO control = 100%
Protocol: as §1, §2

[1] = tested on: HCC827 (EGFR Del) NSCLC cells; experiment: Cell proliferation assay (MTS cell viability); format: cell-based; conditions: Homo sapiens, 72 h; HCC827 cells, 3 days of exposure, MTS
Protocol: Effects of test compounds on in vitro proliferation were measured by MTS cell viability assay.
Prepare test compounds in each well with a final medium volume of 200 μl;
Incubate for 3 days of exposure;
Prepare reagents following the instructions in the Cell Proliferation Assay kit (Promega);
Change to serum-free medium with a final volume of 100 l/well. Prepare a set of wells with medium only for background subtraction;
Add 20 μl MTS solution containing PMS to each well (final concentration of MTS will be 0.33 mg/ml);
Incubate 1 to 4 hours at 37° C. in a humidified, 5% CO2 atmosphere.
Record absorbance at 490 nm using VICTOR™ X5 plate reader (PerkinElmer).
All experimental points were set up in three wells and all experiments were repeated at least three times.

[2] = tested on: H1975 (EGFR L858R/T790M) NSCLC cells; experiment: Cell proliferation assay (MTS cell viability); format: cell-based; conditions: Homo sapiens, NCI-H1975, 72 h; H1975 cells, 3 days of exposure, MTS

ALK (h), sequence (Q9UM73 19-1620): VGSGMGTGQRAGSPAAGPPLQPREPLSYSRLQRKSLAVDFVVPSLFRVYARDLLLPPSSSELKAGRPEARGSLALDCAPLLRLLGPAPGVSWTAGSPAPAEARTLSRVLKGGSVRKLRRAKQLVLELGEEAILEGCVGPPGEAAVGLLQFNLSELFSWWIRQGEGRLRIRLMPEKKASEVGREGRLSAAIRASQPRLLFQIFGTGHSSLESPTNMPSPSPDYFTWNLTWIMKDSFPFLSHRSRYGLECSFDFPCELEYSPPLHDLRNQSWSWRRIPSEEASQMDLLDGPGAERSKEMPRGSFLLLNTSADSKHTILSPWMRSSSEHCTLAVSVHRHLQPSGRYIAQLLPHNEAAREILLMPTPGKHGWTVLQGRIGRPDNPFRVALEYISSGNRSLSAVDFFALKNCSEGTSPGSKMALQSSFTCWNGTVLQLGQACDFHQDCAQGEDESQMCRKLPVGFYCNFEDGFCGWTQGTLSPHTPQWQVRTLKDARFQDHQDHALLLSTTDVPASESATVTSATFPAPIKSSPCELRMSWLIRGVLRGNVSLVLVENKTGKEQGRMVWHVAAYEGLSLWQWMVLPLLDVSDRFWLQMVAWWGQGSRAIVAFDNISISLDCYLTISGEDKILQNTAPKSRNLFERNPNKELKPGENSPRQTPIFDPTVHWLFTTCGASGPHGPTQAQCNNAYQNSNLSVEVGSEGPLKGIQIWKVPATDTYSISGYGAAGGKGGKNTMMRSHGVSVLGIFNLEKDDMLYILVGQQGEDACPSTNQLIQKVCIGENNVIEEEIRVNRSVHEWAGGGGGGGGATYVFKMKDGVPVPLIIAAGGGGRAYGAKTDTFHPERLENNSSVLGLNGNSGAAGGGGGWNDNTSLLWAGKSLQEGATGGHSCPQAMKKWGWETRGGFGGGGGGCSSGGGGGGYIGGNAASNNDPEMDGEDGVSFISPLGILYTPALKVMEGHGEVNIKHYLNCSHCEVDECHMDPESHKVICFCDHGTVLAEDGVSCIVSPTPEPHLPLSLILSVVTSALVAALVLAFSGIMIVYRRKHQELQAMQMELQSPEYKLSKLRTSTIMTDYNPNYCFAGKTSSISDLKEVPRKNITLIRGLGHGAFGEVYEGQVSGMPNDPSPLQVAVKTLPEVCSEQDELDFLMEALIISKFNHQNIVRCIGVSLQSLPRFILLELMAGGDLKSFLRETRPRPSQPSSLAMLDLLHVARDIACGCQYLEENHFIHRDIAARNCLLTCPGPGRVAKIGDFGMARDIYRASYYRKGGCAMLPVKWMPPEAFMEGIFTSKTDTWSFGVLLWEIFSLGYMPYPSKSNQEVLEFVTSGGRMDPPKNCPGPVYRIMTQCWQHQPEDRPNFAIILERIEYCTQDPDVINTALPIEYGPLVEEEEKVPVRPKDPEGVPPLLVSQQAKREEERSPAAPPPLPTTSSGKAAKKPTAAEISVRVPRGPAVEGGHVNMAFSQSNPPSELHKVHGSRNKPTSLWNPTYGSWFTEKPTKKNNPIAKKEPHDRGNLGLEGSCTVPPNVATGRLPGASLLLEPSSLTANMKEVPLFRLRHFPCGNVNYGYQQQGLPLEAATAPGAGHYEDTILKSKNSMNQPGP

Row | Compound | Activity (control) % EGFR (h) (EGFR (h)) | Activity (control) % EGFR (T790M) (h) (EGFR (T790M) (h)) | Activity (control) % EGFR (T790M, L858R) (h) (EGFR (T790M, L858R) (h)) | Activity (control) % EGFR (L858R) (h) (EGFR (L858R) (h)) | Activity (control) % ALK (h) (ALK (h)) | IC50 [1] | IC50 [2]
1 | COc1ccc(NC(=O)/C=C/CN(C)C)cc1Nc1ncc(Cl)c(Nc2ccccc2C(=O)C(=O)N(C)C)n1 [Example 80, (E)-N-(3-(5-chloro-4-(2-(2-(dimethylamino)-2-oxoacetyl)phenylamino)pyrimidin-2-ylamino)-4-methoxyphenyl)-4-(dimethylamino)but-2-enamide] | 101% | 42% | 7% | 43% | 10% |  | 
2 | COc1cc(N2CCOCC2)ccc1Nc1ncc(Cl)c(Nc2ccccc2C(=O)C(=O)N(C)C)n1 [Example 48, 2-(2-(5-chloro-2-(2-methoxy-4-morpholinophenylamino)pyrimidin-4-ylamino)phenyl)-N,N-dimethyl-2-oxoacetamide] |  |  |  |  |  | 1.94 µM | 1.95 µM
3 | COc1cc(N2CCC(N(C)C)CC2)ccc1Nc1ncc(C(F)(F)F)c(Nc2ccccc2C(=O)C(=O)O)n1 [Example 15, 2-(2-((2-((4-(4-(dimethylamino)piperidin-1-yl)-2-methoxyphenyl)amino)-5-(trifluoromethyl)pyrimidin-4-yl)amino)phenyl)-2-oxoacetic acid] |  |  |  |  |  | > 3 µM | > 3 µM
4 | CN(C)C(=O)C(=O)c1ccccc1Nc1nc(Nc2ccc(F)c(NC(=O)CCN3CCOCC3)c2)ncc1Cl [Example 123, N-(5-(5-chloro-4-(2-(2-(dimethylamino)-2-oxoactyl)phenylamino)pyrimidin-2-ylamino)-2-fluorophenyl)-3-morpholinopropanamide] | 115% | 84% | 31% | 94% | 17% |  | 
5 | C=CC(=O)Nc1ccc(N2CCN(C)CC2)c(Nc2ncc(Cl)c(Nc3ccccc3C(=O)C(=O)N(C)C)n2)c1 [Example 135, N-(3-(5-chloro-4-(2-(2-(dimethylamino)-2-oxoacetyl)phenylamino)pyrimidin-2-ylamino)-4-(4-methylpiperazin-1-yl)phenyl)acrylamide] | 106% | 96% | 95% | 103% | 80% |  | 
6 | C=C(CN1CCCC1)C(=O)Nc1ccc(OC)c(Nc2ncc(Cl)c(Nc3ccccc3C(=O)C(=O)N(C)C)n2)c1 [Example 97, N-(3-(5-chloro-4-(2-(2-(dimethylamino)-2-oxoactyl)phenylamino)pyrimidin-2-ylamino)-4-methoxyphenyl)-2-(pyrrolidin-1-ylmethyl)acrylamide] | 74% | 2% | 6% | 46% | 23% |  | 
7 | C=C(CN1CCCCC1)C(=O)Nc1cc(Nc2ncc(Cl)c(Nc3ccccc3C(=O)C(=O)N(C)C)n2)ccc1N1CCOCC1 [Example 129, N-(5-(5-chloro-4-(2-(2-(dimethylamino)-2-oxoactyl)phenylamino)pyrimidin-2-ylamino)-2-morpholinophenyl)-2-(piperidin-1-ylmethyl)acrylamide] | 104% | 24% | 3% | 75% | 8% |  | 
8 | N-(5-(5-chloro-4-(2-(2-(dimethylamino)-2-oxoactyl)phenylamino)pyrimidin-2-ylamino)-2-(tetrahydrofuran-3-yloxy)phenyl)acrylamide [Example 124] | 109% | 78% | 20% | 100% | 16% |  | 
9 | C=C(CN1CCCCC1)C(=O)Nc1cccc(Nc2ncc(Cl)c(Nc3ccccc3C(=O)C(=O)N(C)C)n2)c1 [Example 113, N-(3-(5-chloro-4-(2-(2-(dimethylamino)-2-oxoacetyl)phenylamino)pyrimidin-2-ylamino)phenyl)-2-(piperidin-1-ylmethyl)acrylamide] | 88% | 16% | 3% | 78% | 19% |  | 
10 | CCC(=O)N1CCN(c2ccc(Nc3ncc(Cl)c(Nc4ccccc4C(=O)C(=O)NC)n3)c(OC)c2)CC1 [Example 54, 2-(2-(5-chloro-2-(2-methoxy-4-(4-propionylpiperazin-1-yl)phenylamino)pyrimidin-4-ylamino)phenyl)-N-methyl-2-oxoacetamide] |  |  |  |  |  | > 3 µM | > 3 µM
11 | COc1cc(N2CCC(N(C)C)CC2)ccc1Nc1ncc(Cl)c(Nc2ccccc2C(=O)C(=O)NC2CC2)n1 [Example 25, 2-(2-((5-chloro-2-((4-(4-(dimethylamino)piperidin-1-yl)-2-methoxyphenyl)amino)pyrimidin-4-yl)amino)phenyl)-N-cyclopropyl-2-oxoacetamide] |  |  |  |  |  | > 3 µM | > 3 µM
12 | C=CC(=O)N1CC(NC(=O)C(=O)c2ccccc2Nc2nc(Nc3ccc(N4CCN(C)CC4)cc3OC)ncc2Cl)C1 [Example 55, N-(1-acryloylazetidin-3-yl)-2-(2-(5-chloro-2-(2-methoxy-4-(4-methylpiperazin-1-yl)phenylamino)pyrimidin-4-ylamino)phenyl)-2-oxoacetamide] |  |  |  |  |  | > 3 µM | > 3 µM
13 | COc1cc(N2CCC(N(C)C)CC2)ccc1Nc1ncc(Cl)c(Nc2ccccc2C(=O)C(=O)N2CCOCC2)n1 [Example 18, 1-(2-((5-chloro-2-((4-(4-(dimethylamino)piperidin-1-yl)-2-methoxyphenyl)amino)pyrimidin-4-yl)amino)phenyl)-2-morpholinoethane-1,2-dione] |  |  |  |  |  | > 3 µM | 2.86 µM
14 | COc1cc(N2CCC(N(C)C)CC2)ccc1Nc1ncc(Cl)c(Nc2ccccc2C(=O)C(=O)O)n1 [Example 2, 2-(2-(5-chloro-2-(4-(4-(dimethylamino)piperidin-1-yl)-2-methoxyphenylamino)pyrimidin-4-ylamino)phenyl)-2-oxoacetic acid] |  |  |  |  |  | > 3 µM | > 3 µM
15 | C=CC(=O)Nc1cccc(Nc2nc(Nc3ccc(N4CCN(C(C)=O)CC4)cc3OC)ncc2C(F)(F)F)c1 [CO-1686, reference compound] | 92% | 21% | 7% | 97% |  |  | 
16 | N-(5-(5-chloro-4-(2-(2-(dimethylamino)-2-oxoactyl)phenylamino)pyrimidin-2-ylamino)-2-(2-(dimethylamino)ethoxy)phenyl)acrylamide [Example 115] |  |  |  |  | 6% |  | 
17 | C=CC(=O)N1CCOc2ccc(Nc3ncc(Cl)c(Nc4ccccc4C(=O)C(=O)N(C)C)n3)cc21 [Example 87, 2-(2-(2-(4-acryloyl-3,4-dihydro-2H-benzo[b][1,4]oxazin-6-ylamino)-5-chloropyrimidin-4-ylamino)phenyl)-N,N-dimethyl-2-oxoacetamide] |  |  |  |  | 5% |  | 
18 | C=CC(=O)N1CCC(NC(=O)C(=O)c2ccccc2Nc2nc(Nc3ccc(N4CCN(C)CC4)cc3OC)ncc2Cl)CC1 [Example 56, N-(1-acryloylpiperidin-4-yl)-2-(2-(5-chloro-2-(2-methoxy-4-(4-methylpiperazin-1-yl)phenylamino)pyrimidin-4-ylamino)phenyl)-2-oxoacetamide] |  |  |  |  |  | > 3 µM | > 3 µM
19 | COc1cc(N2CCC(N(C)C)CC2)ccc1Nc1ncc(Cl)c(Nc2ccccc2C(=O)C(=O)NC2CNC2)n1 [Example 24, N-(azetidin-3-yl)-2-(2-((5-chloro-2-((4-(4-(dimethylamino)piperidin-1-yl)-2-methoxyphenyl)amino)pyrimidin-4-yl)amino)phenyl)-2-oxoacetamide] |  |  |  |  |  | > 3 µM | > 3 µM
20 | COc1cc(N2CCN(C)CC2)ccc1Nc1ncc(Cl)c(Nc2ccccc2C(=O)C(=O)NC2CC2)n1 [Example 49, 2-(2-(5-chloro-2-(2-methoxy-4-(4-methylpiperazin-1-yl)phenylamino)pyrimidin-4-ylamino)phenyl)-N-cyclopropyl-2-oxoacetamide] |  |  |  |  |  | > 3 µM | > 3 µM
21 | CCOC(=O)C(=O)c1ccccc1Nc1nc(Nc2ccc(N3CCC(N(C)C)CC3)cc2OC)ncc1Cl [Example 1, ethyl 2-(2-(5-chloro-2-(4-(4-(dimethylamino)piperidin-1-yl)-2-methoxyphenylamino)pyrimidin-4-ylamino)phenyl)-2-oxoacetate] |  |  |  |  |  | > 3 µM | > 3 µM
22 | COc1cc(N2CCN(C)CC2)ccc1Nc1ncc(C(F)(F)F)c(Nc2ccccc2C(=O)C(N)=O)n1 [Example 10, 2-(2-((2-((2-methoxy-4-(4-methylpiperazin-1-yl)phenyl)amino)-5-(trifluoromethyl)pyrimidin-4-yl)amino)phenyl)-2-oxoacetamide] |  |  |  |  |  | > 3 µM | > 3 µM
23 | COc1ccc(NC(=O)C=C(C)C)cc1Nc1ncc(Cl)c(Nc2ccccc2C(=O)C(=O)N(C)C)n1 [Example 71, N-(3-(5-chloro-4-(2-(2-(dimethylamino)-2-oxoacetyl)phenylamino)pyrimidin-2-ylamino)-4-methoxyphenyl)-3-methylbut-2-enamide] |  |  |  |  |  |  | 0.99 µM
